Results reported in article PMC6411751, “Use of machine learning to identify novel, behaviorally active antagonists of the insect odorant receptor co-receptor (Orco) subunit” (Scientific Reports, 2019).
Counter-ions that a name gives are not always drawn. Like-named read-outs stand apart in the source and are kept apart here.

What was measured:
Cqui\Or21 + Cqui\Orco = test: Inhibition of heteromeric OR in oocytes (3-methylindole or OLC12 activation); type: cell-based, Culex quinquefasciatus; details: 100 µM antagonist; for inhibition of odorant activation: 30 nM 3-methylindole; for antagonism of OLC12 (Orco agonist) activation of heteromeric OR: 3 µM OLC12
Procedure: (§1) An automated parallel electrophysiology system (OpusExpress 6000 A, Molecular Devices) was used to record Orco agonist (OLC12) or odorant induced currents under two-electrode voltage clamp. Oocytes were perfused with ND96 (in mM: 96 NaCl, 2 KCl, 1 CaCl2, 1 MgCl2, 5 HEPES, pH 7.4). DMSO was used to prepare 1 M or 100 mM stock solutions of test compounds, which were then diluted in ND96 on the day of the experiment. Compounds were applied at a flow rate of 1.0 mL/min, with extensive washing in ND96 at 4.6 mL/min between applications. Micropipettes with resistances of 0.2–2.0 MΩ were filled with 3 M KCl. The holding potential was −70 mV. Current responses were filtered (4-pole, Bessel, low pass) at 20 Hz (−3 db) and sampled at 100 Hz. OpusXpress 1.1 software (Molecular Devices) was used to capture and store current responses.
(§2) To measure the ability of Orco antagonists to inhibit odorant activation, oocytes expressing heteromeric ORs (Orco + ORX) were exposed to a 30 sec application of odorant followed by a 20 min wash. Oocytes were then exposed to a 90 sec application of Orco antagonist, immediately followed by a 30 sec co-application of Orco antagonist and odorant. The current response to odorant in the presence of Orco antagonist was compared to the preceding response to odorant alone and represented as a percentage. This value was then normalized to the value obtained when the assay was run in the absence of antagonist (sham).
(§3) Figure S3. Effects of Orco antagonists on heteromeric ORs. […]
heteromeric complexes of odorant specificity subunits and Orco. The Orco antagonists tested were 3-isopropyl-6-methyl-catechol (3 I6 MC), a potent compound from the input training set, and two compounds id e ntified in Fig u re 4 an d Ta b le 1 : 2-tert-butyl-6-methylphenol (B MP ) and linalyl formate (LF) . These compounds were tested for antagonist activity against odorant activation of three ORs from Anopheles gambiae (Agam\Or28 + Agam\Orco, Agam\Or39 + A ga m\Orco, Agam\Or65 + A ga m\Orco), o ne O R fro m Culex quinquefasciatus, the southern house mosquito (Cq u i\Or21 + Cqui\Orco) an d on e O R f ro m Drosophila melanogaster (Dme l\Or35a + Dmel\Orco). Each OR was activated by its cognate odorant agonist applied at an approximate EC50 concentration. […]
SEM (n = 4). […] Statistical significance of the data in each panel was assessed by one-way analysis of variance followed by Dunnett’s multiple comparison test using the pre-normalized values for each antagonist compared to the values obtained in the sham recordings (*, p < 0 .0 5; **, p < 0. 01; ***, p < 0 . 00 1 ).

Agam\Or28 + Agam\Orco = molecular target: T1, Agam\Or28 + Agam\Orco (Anopheles gambiae, UniProt Q7QCC7); test: Inhibition of heteromeric OR in oocytes (acetophenone activation); type: cell-based; details: for inhibition of odorant activation: 100 µM antagonist, 40 µM acetophenone
T1 construct: expressed in transfected cells; host or cells: Xenopus laevis oocytes
T1 sequence (Q7QCC7 1-478): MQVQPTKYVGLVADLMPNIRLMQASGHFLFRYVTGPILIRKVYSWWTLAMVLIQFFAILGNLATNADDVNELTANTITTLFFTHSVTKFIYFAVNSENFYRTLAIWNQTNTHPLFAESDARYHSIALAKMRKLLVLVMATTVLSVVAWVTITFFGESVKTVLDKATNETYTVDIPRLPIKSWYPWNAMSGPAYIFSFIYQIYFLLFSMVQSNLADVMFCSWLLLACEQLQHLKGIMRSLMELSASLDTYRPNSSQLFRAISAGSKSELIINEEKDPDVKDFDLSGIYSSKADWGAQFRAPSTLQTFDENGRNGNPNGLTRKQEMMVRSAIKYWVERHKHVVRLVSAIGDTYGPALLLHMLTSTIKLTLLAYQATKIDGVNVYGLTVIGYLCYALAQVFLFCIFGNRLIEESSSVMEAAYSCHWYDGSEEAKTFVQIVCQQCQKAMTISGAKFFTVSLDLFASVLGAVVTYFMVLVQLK
Procedure: as §1

Agam\Or65 + Agam\Orco = molecular target: T2, Agam\Or65 + Agam\Orco (Anopheles gambiae, UniProt Q7QCC7); test: Inhibition of heteromeric OR in oocytes (eugenol activation); type: cell-based; details: 100 µM antagonist; 100 nM eugenol
T2 construct: expressed in transfected cells; host or cells: Xenopus laevis oocytes
T2 sequence (Q7QCC7 1-478): T1 sequence (Q7QCC7 1-478)
Procedure: as §1, §2, §3
heteromeric complexes of odorant specificity subunits and Orco. The Orco antagonists tested were 3-isopropyl-6-methyl-catechol (3 I6 MC), a potent compound from the input training set, and two compounds id e ntified in Fig u re 4 an d Ta b le 1 : 2-tert-butyl-6-methylphenol (B MP ) and linalyl formate (LF) . […]
SEM (n = 4). […] Statistical significance of the data in each panel was assessed by one-way analysis of variance followed by Dunnett’s […]

Agam\Orco = molecular target: T3, Agam\Orco (Anopheles gambiae, UniProt Q7QCC7); test: cell-based; type: cell-based
T3 construct: expressed in transfected cells; host or cells: Xenopus laevis oocytes injected with capped cRNA (plasmid pT7TS, gift of L. Zwiebel)
T3 sequence (Q7QCC7 1-478): T1 sequence (Q7QCC7 1-478)
How it was run: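 Xenopus oocytes injected with 25 ng Agam\Orco cRNA, clamped at −70 mV in ND96 by two-electrode voltage clamp. After two 60 s pulses of 30 μM OLC12, compound applied 90 s then co-applied with OLC12 60 s; response was given as percent of prior OLC12 responses, sham-normalized.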

## Cc1ccc(C(C)C)c(O)c1O [3I6MC, 3-isopropyl-6-methyl catechol]
Cqui\Or21 + Cqui\Orco
  inhibition of odorant activation: could inhibit odorant activation
  antagonism of OLC12 (Orco agonist) activation of heteromeric OR: could antagonize OLC12
Agam\Or28 + Agam\Orco
  inhibition of odorant activation: could inhibit odorant activation
Agam\Or65 + Agam\Orco
  inhibition of odorant activation: could inhibit odorant activation
Agam\Orco; 100 µM compound, 30 µM OLC12
  inhibition of OLC12 activation: strongly inhibited
Agam\Orco; Agam\Orco activated by 30 µM OLC12, read-out: IC50
  IC50: 41 ± 7 µM

## Cc1cccc(C(C)(C)C)c1O [BMP, 2-tert-butyl-6-methylphenol]
Cqui\Or21 + Cqui\Orco
  inhibition of odorant activation: able to inhibit odorant activation
  antagonism of OLC12 (Orco agonist) activation of heteromeric OR: able to antagonize OLC12
Agam\Or28 + Agam\Orco; 100 µM acetophenone, n = 4-8, read-out: IC50 for inhibition of Agam\Or28 + Agam\Orco activation by 100 µM ACE
  IC50: 53 ± 9 µM
Agam\Or28 + Agam\Orco
  inhibition of odorant activation: able to inhibit odorant activation
Agam\Or28 + Agam\Orco; 10 vs 100 µM acetophenone fails to shift inhibition curve
  mechanism of inhibition of odorant responses: non-competitive
Agam\Or65 + Agam\Orco
  inhibition of odorant activation: able to inhibit odorant activation
Agam\Orco
  more potent than LF: 5 fold
Agam\Orco; 10 µM OLC12, n = 4-7, read-out: IC50 for inhibition of Agam\Orco activation by 10 µM OLC12
  IC50: 12 ± 2 µM
Agam\Orco; 100 µM OLC12, n = 3-9, read-out: IC50 for inhibition of Agam\Orco activation by 100 µM OLC12
  IC50: 137 ± 38 µM
Agam\Orco; 10 vs 100 µM OLC12 shifts inhibition curve
  mechanism of inhibition of Orco agonist (OLC12) responses: competitive
Agam\Orco; Table 1, inhibition of Agam\Orco activated by 30 µM OLC12, mean ± SEM (n = 3–8), read-out: IC50
  IC50: 48 ± 5 µM

## C=CC(C)(CCC=C(C)C)OC=O (stereo not shown) [LF, linalyl formate]
Cqui\Or21 + Cqui\Orco
  inhibition of odorant activation: able to inhibit odorant activation
  antagonism of OLC12 (Orco agonist) activation of heteromeric OR: able to antagonize OLC12
Agam\Or28 + Agam\Orco
  inhibition of odorant activation: able to inhibit odorant activation
Agam\Or65 + Agam\Orco
  inhibition of odorant activation: able to inhibit odorant activation
Agam\Orco; read-out: IC50
  IC50: 251 ± 39 µM
